Experimental data from patent US11866416B2, “Streptococcus mutans glucosyl transferase inhibitors for dental caries therapy” (UAB Research Foundation, priority 2018, dated 2024).
Read-outs that look alike come from different tables or passages of the source.

Experiments:
[1] = system: S. mutans biofilm; test: S. mutans biofilm formation and inhibition assay (96-well plates, crystal violet); assay type: cell-based, Streptococcus mutans; conditions: for Biofilm inhibition 200 μM (%): Table 6, chalcones, NI = no inhibition
Procedure: Biofilm assays using 96-well flat-bottom polystyrene microtiter plates were performed to evaluate S. mutans biofilm formation at various conditions as described (Liu et al. (2011) Antimicrobial Agents and Chemotherapy 55, 2679; Zhang et al. (2015) International Journal of Antimicrobial Agents 46, 174), the disclosures of which are incorporated herein by reference in their entirety). Each assay was replicated three times. Compounds that inhibited biofilm formation at minimum concentration (MBIC) were determined by serial dilutions.
S. mutans biofilm formation and inhibition assays. […] Each assay was replicated three times. Minimum biofilm inhibitory concentration (MBIC) of compounds was determined by serial dilutions.
S. mutans biofilm formation and inhibition assays. Biofilm assays using 96-well flat-bottom polystyrene microtiter plates were performed to evaluate S. mutans biofilm formation at various conditions as described. Each assay was replicated […]. Compounds that inhibited 50% biofilm formation were determined by serial dilutions.
S. mutans biofilm formation and inhibition assays. A well-established protocol to study S. mutans biofilm formation in 96-well flat-bottom polystyrene microtiter plates was used, in triplicate (Mattos-Graner, R. O.; Napimoga, M. H.; Fukushima, K.; Duncan, M. J.; Smith, D. J., Comparative analysis of Gtf isozyme production and diversity in isolates of Streptococcus mutans with different biofilm growth phenotypes. Journal of clinical microbiology 2004, 42 (10), 4586-4592). The stock solutions were made up in 100% DMSO, and final concentration of DMSO used in the assays was 1%. Minimum biofilm inhibitory concentration (MBIC) of compounds was determined by serial dilutions.

[2] = system: S. mutans; test: microbe, parasite or virus in culture; assay type: cell-based, Streptococcus mutans; conditions: for MIC50: Streptococcus mutans, Table 2, >300 = no inhibition up to 300 μM, read-out: Growth Inhibition MIC50; for Growth inhibition 200 μM (%): Table 6, chalcones, NI = no inhibition
Procedure: Cell viability of S. mutans, S. gordonii, S. sanguinis, Aggregatibacter actinomycetemcomitans and Actinomyces. […] The number of colony-forming units (CFU) per milliliter of each sample treated with selected compounds at different concentrations was enumerated after incubation for 24 h at 37° C. and compared to the values obtained from the DMSO control group. Overnight broth cultures were transferred by 1:50 dilutions into fresh THB medium and were allowed to grow until mid-exponential phase (OD470 nm 0.6) before transfer to 96-well plates containing desired concentration of the compound. After 16 h incubation, bacterial growth was measured at OD470, and normalized to the DMSO control (100%).
Cell viability of S. mutans and commensal S. gordonii and S. sanguinis. Effects of lead small molecules on cell viability were examined. The number of colony-forming units (CFU) per milliliter for each compound at different concentrations was determined after incubation for 24 h at 37° C. and compared to the values obtained from the DMSO control group.
Cell viability of S. mutans and commensal S. gordonii and S. sanguinis. […] DMSO served as a control group and provided a relative comparison for the number of colony-forming units (CFU) per milliliter for each compound at different concentrations was determined after incubation for 24 h at 37° C. The final concentration of DMSO used in the assays was 1%.

[3] = Streptococcus mutans, Table 1, >500 = no inhibition up to 500 μM, read-out: Biofilm Inhibition IC50
[4] = Streptococcus mutans, Table 2, read-out: Biofilm Inhibition IC50
[5] = read-out: S. mutans biofilm IC50

Structure (SMILES)	IC50 [1, 3]	IC50 [1, 4]	MIC50 [2]	further results
NC(=O)c1ccccc1NC(=O)c1c[nH]c2ccccc12 [Compound 3F]	146 µM	146 µM	> 300 µM	
COc1ccc2[nH]c(C(=O)Nc3ccccc3C(N)=O)cc2c1 [Compound 3G]	68.8 µM	68.8 µM	> 300 µM	
NC(=O)c1ccccc1NC(=O)c1cnc2ccc(Br)cc2c1 [Compound 3J]	106 µM	106 µM	> 300 µM	
NC(=O)c1ccccc1NC(=O)c1cc2cc([N+](=O)[O-])ccc2o1 [Compound 3K]	103 µM	103 µM	> 300 µM	
NC(=O)c1cccc(NC(=O)c2cc3cc([N+](=O)[O-])ccc3s2)c1 [Compound 3P]	42.3 µM	42.3 µM	> 300 µM	
NC(=O)c1ccccc1OC(=O)c1cc2cc([N+](=O)[O-])ccc2s1 [Compound 3Q]	50.4 µM	50.4 µM	> 300 µM	
NC(=O)c1cccc(NC(=O)c2cnc3ccccc3c2)c1 [Compound 3R]	8.6 µM	8.6 µM	> 300 µM	
COC(=O)c1ccc(NC(=O)c2cnc3ccccc3c2)cc1 [Compound 3S]	92.3 µM	92.3 µM	> 300 µM	
COC(=O)c1cccc(NC(=O)c2cc3cc([N+](=O)[O-])ccc3s2)c1 [Compound 3U]	54.4 µM	54.4 µM	> 300 µM	
COC(=O)c1ccc(NC(=O)c2cc3ccccc3s2)cc1 [Compound 3V]	41.2 µM	41.2 µM	> 300 µM	
COc1ccc2[nH]c(C(=O)Nc3cccc(C(N)=O)c3)cc2c1 [Compound 3W]	56.6 µM	56.6 µM	> 300 µM	
NC(=O)c1cccc(NC(=O)c2cc3ccccc3s2)c1 [Compound 3X]	116 µM	116 µM	> 300 µM	
NC(=O)c1ccc(NC(=O)c2cc3ccccc3s2)cc1 [Compound 3Y]	45.6 µM	45.6 µM	> 300 µM	
NC(=O)c1cccc(NC(=O)c2cc3cc([N+](=O)[O-])ccc3o2)c1 [Compound 3Z]	38.8 µM	38.8 µM	> 300 µM	
N=C(N)c1ccc(/C=C/c2ccc(C(=N)N)cc2O)cc1 [Compound 5]				effect on S. mutans biofilm in the preliminary screen ([1]; chalcones, 200 μM): did not possess any bactericidal or anti-biofilm properties; IC50 [1, 5]: 104 µM; S. mutans growth IC50 / MIC50 [2]: 179 µM; effect on S. mutans growth ([2]; chalcones, up to 200 μM): did not possess any bactericidal or anti-biofilm properties
Oc1cc(O)cc(/C=C/c2ccc(O)c(O)c2)c1 [Compound 8]				Biofilm inhibition 200 μM (%) ([1]; 200 μM): 81 ± 2%; IC50 [1, 5]: 52 µM; Growth inhibition 200 μM (%) ([2]; 200 μM): 82 ± 2%
COc1ccc(/C=C/C(=O)c2ccc(OC)c(OC)c2)cc1O [Compound 13]				Biofilm inhibition 200 μM (%) ([1]; 200 μM): 27 ± 4%; biofilm inhibition at 200 μM ([1]; chalcones, 200 μM): 30%; activity of stilbenes against S. mutans biofilm ([1]; stilbenes): not active against biofilm and growth; Growth inhibition 200 μM (%) ([2]; 200 μM): 30 ± 0.7%; growth inhibition at 200 μM ([2]; chalcones, 200 μM): 30%; activity of stilbenes against S. mutans growth ([2]; stilbenes): not active against biofilm and growth
CC(C)(C)OC(=O)NCc1ccccc1NC(=O)c1cc2cc([N+](=O)[O-])ccc2[nH]1 [Compound 298C9]		26.8 µM	> 300 µM	
NCc1ccccc1NC(=O)c1cc2cc([N+](=O)[O-])ccc2[nH]1 [Compound 298C10]		98.3 µM	> 300 µM	
COC(=O)c1cccc(NC(=O)c2cc3ccccc3s2)c1 [Compound 298D5]		121 µM	> 300 µM	
NC(=O)c1ccccc1OC(=O)c1cnc2ccccc2c1 [Compound 298F7]		30.4 µM	> 300 µM	
COC(=O)c1cccc(NC(=O)c2ccc3ccccc3n2)c1 [Compound 298G5]		92.3 µM	> 300 µM	
COC(=O)c1ccc(NC(=O)c2ccc3ccccc3n2)cc1 [Compound 298G6]		106 µM	> 300 µM	
NC(=O)c1ccccc1OC(=O)c1ccc2ccccc2n1 [Compound 298G7]		105 µM	> 300 µM	
